Laboratory results: patent US20150105252A1, “SUBSTITUTED PYRAZOLES AS HERBICIDES” (E I DU PONT DE NEMOURS AND COMPANY, priority 2013, published 2015)

What was measured:
foxtail, giant = test: Test A preemergence; format: in vivo, Setaria faberii; details: preemergence
How it was run: (§1)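 Seeds were sown in a loam soil–sand blend and given a directed soil spray preemergence; postemergence plants at 2–10 cm, one- to two-leaf stage, were sprayed with compound in non-phytotoxic solvent with surfactant. After about 10 days in a greenhouse, injury was visually rated against untreated controls (0 = no effect, 100 = complete control).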

barnyardgrass [1] = test: Test A postemergence; format: in vivo, Echinochloa crus-galli
How it was run: as §1

rice = test: Test B flood; format: in vivo, Oryza sativa; details: 250 g ai/ha, visual rating on 0 to 100 scale (0 no effect, 100 complete control), 13 to 15 days
How it was run: (§2)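 Visual ratings (0 = no effect, 100 = complete control) versus untreated controls were taken 13–15 days after treatment of greenhouse plants. Treatment was added to paddy water held at 3 cm depth on 2-leaf-stage seedlings.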

ducksalad = test: Test B flood; format: in vivo, Heteranthera limosa; details: 250 g ai/ha, visual rating on 0 to 100 scale (0 no effect, 100 complete control), 13 to 15 days
How it was run: as §2

barnyardgrass [2] = test: Test B flood; format: in vivo, Echinochloa crus-galli; details: 250 g ai/ha, visual rating on 0 to 100 scale (0 no effect, 100 complete control), 13 to 15 days
How it was run: as §2

waterhemp = test: Test C preemergence; format: in vivo, Amaranthus rudis; details: preemergence; for Plant response rating, Waterhemp: 125 g ai/ha, scale 0 to 100, 0 = no effect, 100 = complete control
How it was run: (§3)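 Visual control ratings on a 0–100 scale (100 = complete control) made against untreated controls after 13 to 15 days in greenhouse. Compounds applied in surfactant-containing solvent mixture, either preemergence to loam/sand-sown seeds or postemergence to 1- to 4-leaf plants (2–18 cm) in peat medium.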

johnsongrass = test: Test C postemergence; format: in vivo, Sorghum halepense; details: for Plant response rating (scale of 0 to 100 where 0 is no effect and 100 is complete control), Johnsongrass: Postemergence, 31 g ai/ha, visually evaluated after 13 to 15 days; for Johnsongrass plant response rating / Plant response rating, Johnsongrass: postemergence; for Johnsongrass plant response rating: 62 g ai/ha, scale 0 to 100
How it was run: as §3

lambsquarters = test: Test C postemergence; format: in vivo, Chenopodium album; details: for Plant response rating (scale of 0 to 100 where 0 is no effect and 100 is complete control), Lambsquarters: Postemergence, 31 g ai/ha, visually evaluated after 13 to 15 days; for Lambsquarters plant response rating / Plant response rating, Lambsquarters: postemergence; for Lambsquarters plant response rating: 62 g ai/ha, scale 0 to 100
How it was run: as §3

nutsedge, yellow = test: Test C postemergence; format: in vivo, Cyperus esculentus; details: for Plant response rating (scale of 0 to 100 where 0 is no effect and 100 is complete control), Nutsedge, Yellow: Postemergence, 31 g ai/ha, visually evaluated after 13 to 15 days; for Nutsedge, Yellow plant response rating / Plant response rating, Nutsedge, Yellow: postemergence; for Nutsedge, Yellow plant response rating: 62 g ai/ha, scale 0 to 100
How it was run: as §3

pigweed = test: Test C postemergence; format: in vivo, Amaranthus retroflexus; details: for Pigweed plant response rating / Plant response rating, Pigweed: postemergence; for Pigweed plant response rating: 62 g ai/ha, scale 0 to 100
How it was run: as §3

oilseed rape = test: Test C postemergence; format: in vivo, Brassica napus; details: for Oilseed Rape plant response rating / Plant response rating, Oilseed Rape: postemergence; for Oilseed Rape plant response rating: 62 g ai/ha, scale 0 to 100
How it was run: as §3

oat, wild = test: Test C postemergence; format: in vivo, Avena fatua; details: for Plant response rating (scale of 0 to 100 where 0 is no effect and 100 is complete control), Oat, Wild: Postemergence, 31 g ai/ha, visually evaluated after 13 to 15 days; for Oat, Wild plant response rating / Plant response rating, Oat, Wild: postemergence; for Oat, Wild plant response rating: 62 g ai/ha, scale 0 to 100
How it was run: as §3

kochia = test: Test C postemergence; format: in vivo, Kochia scoparia; details: for Plant response rating (scale of 0 to 100 where 0 is no effect and 100 is complete control), Kochia: Postemergence, 31 g ai/ha, visually evaluated after 13 to 15 days; for Kochia plant response rating / Plant response rating, Kochia: postemergence; for Kochia plant response rating: 62 g ai/ha, scale 0 to 100
How it was run: as §3

velvetleaf = test: Test C postemergence; format: in vivo, Abutilon theophrasti; details: for Plant response rating, Velvetleaf / Velvetleaf plant response rating: postemergence; for Plant response rating, Velvetleaf: 250 g ai/ha, scale 0 to 100 (0 no effect, 100 complete control); for Velvetleaf plant response rating: scale 0 to 100
How it was run: as §3

[3] = 500 g ai/ha, visual injury after approx. 10 days, 0 to 100 scale (0 no effect, 100 complete control)
[4] = Postemergence, 500 g ai/ha, 0 to 100 scale (0 no effect, 100 complete control)
[5] = postemergence, 125 g ai/ha, about 10 days, visual rating on 0 to 100 scale (0 no effect, 100 complete control)
[6] = 31 g ai/ha, visual rating, scale 0 to 100 (0 no effect, 100 complete control), 13 to 15 days
[7] = 62 g ai/ha, scale 0 to 100 (0 no effect, 100 complete control), 13 to 15 days
[8] = 250 g ai/ha, scale 0 to 100, 0 is no effect, 100 is complete control
[9] = 250 g ai/ha, scale 0 to 100 (0 no effect, 100 complete control)
[10] = 125 g ai/ha, scale 0 to 100, 0 no effect, 100 complete control
[11] = Postemergence, 31 g ai/ha, visually evaluated after 13 to 15 days

## CCc1cc(C(=O)NC(C)C)nn1Cc1ccnc(C(F)(F)F)c1 [Compound 139]
foxtail, giant; 125 g ai/ha, visual injury, 0 to 100 scale, approx. 10 days
  Foxtail, Giant plant response rating: 100
foxtail, giant; [3]
  Foxtail, Giant plant response rating: 100
Barnyardgrass [1]; [4]
  Barnyardgrass plant response rating: 90
Barnyardgrass [1]; [5]
  Barnyardgrass plant response rating: 80
rice
  Plant response rating, Rice: 50
ducksalad
  Plant response rating, Ducksalad: 100
Barnyardgrass [2]
  Plant response rating, Barnyardgrass: 60
waterhemp; [6]
  Waterhemp plant response rating: 85
waterhemp; [7]
  Waterhemp plant response rating: 100
waterhemp; 13 to 15 days
  Plant response rating, Waterhemp: 100
waterhemp; [8]
  Waterhemp plant response rating: 100
johnsongrass
  Plant response rating (scale of 0 to 100 where 0 is no effect and 100 is complete control), Johnsongrass: 5
  Johnsongrass plant response rating: 5
johnsongrass; [9]
  Plant response rating, Johnsongrass: 20
johnsongrass; [10]
  Plant response rating, Johnsongrass: 10
lambsquarters
  Plant response rating (scale of 0 to 100 where 0 is no effect and 100 is complete control), Lambsquarters: 40
  Lambsquarters plant response rating: 55
lambsquarters; [9]
  Plant response rating, Lambsquarters: 85
lambsquarters; [10]
  Plant response rating, Lambsquarters: 70
nutsedge, yellow
  Plant response rating (scale of 0 to 100 where 0 is no effect and 100 is complete control), Nutsedge, Yellow: 5
  Nutsedge, Yellow plant response rating: 5
nutsedge, yellow; [9]
  Plant response rating, Nutsedge, Yellow: 5
nutsedge, yellow; [10]
  Plant response rating, Nutsedge, Yellow: 5
pigweed; [11]
  Plant response rating (scale of 0 to 100 where 0 is no effect and 100 is complete control), Pigweed: 30
pigweed
  Pigweed plant response rating: 40
pigweed; [9]
  Plant response rating, Pigweed: 60
pigweed; [10]
  Plant response rating, Pigweed: 40
Oilseed rape; [11]
  Plant response rating (scale of 0 to 100 where 0 is no effect and 100 is complete control), Oilseed Rape: 20
Oilseed rape
  Oilseed Rape plant response rating: 45
Oilseed rape; [9]
  Plant response rating, Oilseed Rape: 50
Oilseed rape; [10]
  Plant response rating, Oilseed Rape: 50
oat, wild
  Plant response rating (scale of 0 to 100 where 0 is no effect and 100 is complete control), Oat, Wild: 10
  Oat, Wild plant response rating: 10
oat, wild; [9]
  Plant response rating, Oat, Wild: 40
oat, wild; [10]
  Plant response rating, Oat, Wild: 30
kochia
  Plant response rating (scale of 0 to 100 where 0 is no effect and 100 is complete control), Kochia: 60
  Kochia plant response rating: 75
kochia; [9]
  Plant response rating, Kochia: 85
kochia; [10]
  Plant response rating, Kochia: 85
velvetleaf; [11]
  Plant response rating (scale of 0 to 100 where 0 is no effect and 100 is complete control), Velvetleaf: 10
velvetleaf
  Plant response rating, Velvetleaf: 25
  Velvetleaf plant response rating: 15

## Cc1cc(C(=O)NC(C)C)nn1Cc1ccnc(C(F)(F)F)c1 [Compound 197]
foxtail, giant; 125 g ai/ha, visual injury approx. 10 days after treatment
  Foxtail, Giant plant response rating (0 to 100 scale): 100
foxtail, giant; [3]
  Foxtail, Giant plant response rating: 100
Barnyardgrass [1]; [4]
  Barnyardgrass plant response rating: 100
Barnyardgrass [1]; [5]
  Barnyardgrass plant response rating: 80
rice
  Plant response rating, Rice: 10
ducksalad
  Plant response rating, Ducksalad: 95
Barnyardgrass [2]
  Plant response rating, Barnyardgrass: 10
waterhemp; [6]
  Waterhemp plant response rating: 100
waterhemp; [7]
  Waterhemp plant response rating: 100
waterhemp; 13 to 15 days
  Plant response rating, Waterhemp: 100
waterhemp; [8]
  Waterhemp plant response rating: 100
johnsongrass
  Plant response rating (scale of 0 to 100 where 0 is no effect and 100 is complete control), Johnsongrass: 0
  Johnsongrass plant response rating: 65
johnsongrass; [9]
  Plant response rating, Johnsongrass: 5
johnsongrass; [10]
  Plant response rating, Johnsongrass: 0
lambsquarters
  Plant response rating (scale of 0 to 100 where 0 is no effect and 100 is complete control), Lambsquarters: 55
  Lambsquarters plant response rating: 55
lambsquarters; [9]
  Plant response rating, Lambsquarters: 85
lambsquarters; [10]
  Plant response rating, Lambsquarters: 60
nutsedge, yellow
  Plant response rating (scale of 0 to 100 where 0 is no effect and 100 is complete control), Nutsedge, Yellow: 0
  Nutsedge, Yellow plant response rating: 5
nutsedge, yellow; [9]
  Plant response rating, Nutsedge, Yellow: 5
nutsedge, yellow; [10]
  Plant response rating, Nutsedge, Yellow: 10
pigweed
  Pigweed plant response rating: 60
pigweed; [9]
  Plant response rating, Pigweed: 70
pigweed; [10]
  Plant response rating, Pigweed: 65
Oilseed rape
  Oilseed Rape plant response rating: 5
Oilseed rape; [9]
  Plant response rating, Oilseed Rape: 10
Oilseed rape; [10]
  Plant response rating, Oilseed Rape: 20
oat, wild
  Plant response rating (scale of 0 to 100 where 0 is no effect and 100 is complete control), Oat, Wild: 0
  Oat, Wild plant response rating: 0
oat, wild; [9]
  Plant response rating, Oat, Wild: 5
oat, wild; [10]
  Plant response rating, Oat, Wild: 5
kochia
  Plant response rating (scale of 0 to 100 where 0 is no effect and 100 is complete control), Kochia: 40
  Kochia plant response rating: 60
kochia; [9]
  Plant response rating, Kochia: 90
kochia; [10]
  Plant response rating, Kochia: 85
velvetleaf
  Plant response rating, Velvetleaf: 40
  Velvetleaf plant response rating: 40
